Read-outs that look alike come from different tables or passages of the source.
Assays:
colorectal adenomas = system: colorectal adenomas
Excerpt: Dartmouth was the coordinating center and the University of Minnesota was the pathology center. Human subjects committees at each center approved the study protocol; an independent safety and data monitoring committee reviewed the study semi-annually.
Staff at each clinical center monitored colonoscopy and pathology records at associated endoscopy units to identify patients with at least one histologically-confirmed large bowel adenoma removed within three months of recruitment, and with the entire large bowel mucosa subsequently examined and judged free of remaining polyps.
(§1) We reviewed data from 2,918 apparently eligible patients. […] The trial was double-blind; neither subjects nor study staff were told the subjects' treatment assignments.
Subjects received two follow-up colonoscopies as part of their routine clinical care, generally by the same physician who conducted the qualifying exam. The first follow-up examination was planned for approximately one year after the qualifying colonoscopy (about nine months after randomization), and a second follow-up examination was planned for thirty-six months after that. Large bowel endoscopy was otherwise discouraged unless clinically indicated (e.g., for rectal bleeding). Follow-up examinations were considered “adequate” if the entire large bowel mucosa was visualized, and no polyps remained at the end of the procedure. We designated the time from randomization to the first follow-up exam as the first study interval, and the period after the first follow-up exam up to (and including) the second follow-up colonoscopy as the second study interval.
At each colonoscopy, the endoscopist recorded the size and location of all mucosal lesions, using standard clinical technique. […] In cases of disagreement, we accepted the study pathologist's diagnosis.
The primary endpoint of the trial was the proportion of subjects having at least one adenoma detected during the second study interval, i.e., after the first follow-up colonoscopy, up to and including the second follow-up examination (including adenomas detected during interim endoscopies).
(§2) For our statistical analyses, we compared proportions using Fisher's exact test, and measured data using t-tests or rank tests (Snedecor and Cochran, Statistical Methods, Seventh Edition, Ames: Iowa State University Press, 1980). […] To address the first issue, we used overdispersed log-linear quasi-likelihood models programmed in SPlus (Seattle) to provide unadjusted and adjusted estimates and confidence intervals for the relative risk of at least one recurrent adenoma (McCullagh and Nelder, Generalized Linear Models (Second Edition), Chapman-Hall, 1989). […] Co-variates included age (linear term), gender, the lifetime number of adenomas before study entry, clinical center, and the length of the surveillance interval. Possible interactions were considered using product interaction terms. Subgroup analyses included investigation of subjects above and below the median of the calorie-adjusted intake (Willet, Nutritional Epidemiology, Oxford University Press, 1990) of selected nutrients. […] All P-values were two-sided.

[1] = Method: as §1
At enrollment and at the time of each of the two follow-up colonoscopies, we obtained venous blood specimens in mineral-free tubes. Serum was initially stored at −20° C. or lower, pending shipment to Dartmouth for storage at −70° C. until analysis. At enrollment and the end of the study, we also assessed subjects' diet with a validated food frequency questionnaire (Block et al., Am. J. Epidemiol., 124:453-69, 1986). Every six months, we sent patients questionnaires regarding adherence to study agents; use of medications, over-the-counter drugs and nutritional supplements; and the occurrence of symptoms, illnesses, and hospitalizations. Recruitment into the study began in November 1988 and ended in April 1992. Follow-up ended in December 1996.
as §2

[2] = at least one endoscopy, study exams
[3] = at or before the first follow-up
[4] = calcium vs placebo, 913 subjects with at least one study colonoscopy
[5] = calcium vs placebo, completed the study, 2nd study interval
[6] = calcium vs placebo, completed the trial, first study interval
[7] = calcium vs placebo, second study interval
[8] = completed the study, 1st or 2nd study interval
[9] = completed the study, 1st study exam
[10] = completed the study, 2nd study exam
[11] = completed the study, 2nd study interval (main risk period)

O=C([O-])[O-].[Ca+2] [calcium, calcium carbonate]
Mean number of adenomas (colorectal adenomas; at least one endoscopy, 1st or 2nd interval): 0.92 | % with one or more adenomas (colorectal adenomas; [2]): 42.3% | Mean number of adenomas (colorectal adenomas; [2]): 0.86 | participants with an adenoma with severe atypia removed (colorectal adenomas; [3]): one | patients with invasive cancer (colorectal adenomas; [3]): 2 | Ratio of the mean number of adenomas (colorectal adenomas; calcium vs placebo, adjusted, completed the study (832 subjects), 2nd study interval): 0.76 | unadjusted ratio of the average numbers of adenomas (colorectal adenomas; [4]): 0.74 | unadjusted risk ratio of at least one adenoma after randomization (colorectal adenomas; [4]): 0.85 | unadjusted ratio of the average number of adenomas (colorectal adenomas; [5]): 0.75 | unadjusted risk ratio for at least one adenoma (colorectal adenomas; [5]): 0.83 | unadjusted ratio of the average numbers of adenomas (colorectal adenomas; [6]): 0.73 | unadjusted risk ratio for at least one adenoma (colorectal adenomas; [6]): 0.77 | unadjusted risk ratio for at least one adenoma 0.5 cm or greater versus no adenomas (colorectal adenomas; [7]): 0.87 | unadjusted risk ratio, largest adenoma less than 0.5 cm versus no adenomas (colorectal adenomas; [7]): 0.75 | % with one or more adenomas (colorectal adenomas; [8]): 44.7% | Mean number of adenomas (colorectal adenomas; [8]): 0.98 | % with one or more adenomas (colorectal adenomas; [9]): 24.4% | Mean number of adenomas (colorectal adenomas; [9]): 0.40 | Mean number of adenomas (colorectal adenomas; completed the study, 1st study interval): 0.43 | % with one or more adenomas (colorectal adenomas; [10]): 30.1% | Mean number of adenomas (colorectal adenomas; [10]): 0.51 | mean size of the largest adenoma (colorectal adenomas; completed the study, 2nd study interval): 0.4 cm | % with one or more adenomas (colorectal adenomas; [11]): 31.1% | Mean number of adenomas (colorectal adenomas; [11]): 0.55 | % with one or more adenomas (colorectal adenomas; completed the study, 2nd study interval (main risk period), listed as CALCIUM): 31.1% | number of patients with at least one colorectal adenoma (colorectal adenomas; completed the study, main risk period (2nd study interval)): 127 | number of subjects with at least one adenoma (colorectal adenomas; completed the trial, up to and including the first follow-up exam): 103 | adenomas with severe atypia removed (colorectal adenomas; during the main risk period): no adenomas with severe atypia were removed | subjects with invasive large bowel cancer (colorectal adenomas; during the main risk period): 1 | subjects whose largest adenoma was less than 0.5 cm (colorectal adenomas; second study interval): 70 | subjects with an adenoma 0.5 cm or greater (colorectal adenomas; second study interval): 57 | % with one or more adenomas (colorectal adenomas; subjects who completed the study (409 calcium), 1st study interval (randomization to first follow-up colonoscopy)): 25% | % with one or more adenomas (colorectal adenomas; subjects who completed the study (409 calcium), 1st study interval (randomization to first follow-up colonoscopy), listed as CALCIUM): 25.2% | % with one or more adenomas (colorectal adenomas; subjects who had at least one endoscopy (454 calcium), 1st or 2nd interval): 43.2% | Hospitalized: All cancer, % ([1]; after randomization): (3.2) % | Hospitalized: Cardiac disease, % ([1]; after randomization): (10.8) % | Hospitalized: Gastrointestinal disease, % ([1]; after randomization): (8.2) % | Hospitalized: Other, % ([1]; after randomization): (27.2) % | Hospitalized: Stroke, % ([1]; after randomization): (2.6) % | Stopped treatment because of perceived toxicity, % ([1]; after randomization): (2.6) % | patients diagnosed with definite or probable urinary stones ([1]; after randomization): Two | Subjects Hospitalized, % ([1]; after randomization, any reason): (37.1) % | toxicity (in words) ([1]; calcium supplementation during the trial, listed as calcium carbonate): minimal | frequency of digestive symptoms (including constipation) ([1]; calcium vs placebo): did not differ materially | medical complaints and complications (in words) ([1]; calcium vs placebo): not associated with treatment assignment
